From ChEMBL document CHEMBL1909046, “DrugMatrix in vitro pharmacology data”

Assays:
[1] = molecular target: T1, Substance-K receptor (Homo sapiens, UniProt P21452); type: cell membranes, CHO, Membrane; settings: cho; also: in other assays of this panel Not Active means under 50% inhibition at 10 µM
T1 sequence (P21452 whole entry): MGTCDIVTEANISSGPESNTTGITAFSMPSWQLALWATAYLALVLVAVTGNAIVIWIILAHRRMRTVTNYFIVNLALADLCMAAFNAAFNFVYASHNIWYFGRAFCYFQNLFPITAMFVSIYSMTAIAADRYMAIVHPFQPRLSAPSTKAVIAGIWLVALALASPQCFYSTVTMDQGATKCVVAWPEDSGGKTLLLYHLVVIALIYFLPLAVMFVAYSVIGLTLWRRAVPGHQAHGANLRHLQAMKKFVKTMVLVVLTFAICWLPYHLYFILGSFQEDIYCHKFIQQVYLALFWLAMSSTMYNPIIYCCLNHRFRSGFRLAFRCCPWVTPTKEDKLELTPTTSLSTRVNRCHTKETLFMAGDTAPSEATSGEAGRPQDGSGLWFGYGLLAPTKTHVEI

[2] = molecular target: T2, Muscarinic acetylcholine receptor M2 (Homo sapiens, UniProt P08172); type: cell membranes, CHO-K1, Membrane; also: in other assays of this panel Not Active means under 50% inhibition at 10 µM
T2 sequence (P08172 whole entry): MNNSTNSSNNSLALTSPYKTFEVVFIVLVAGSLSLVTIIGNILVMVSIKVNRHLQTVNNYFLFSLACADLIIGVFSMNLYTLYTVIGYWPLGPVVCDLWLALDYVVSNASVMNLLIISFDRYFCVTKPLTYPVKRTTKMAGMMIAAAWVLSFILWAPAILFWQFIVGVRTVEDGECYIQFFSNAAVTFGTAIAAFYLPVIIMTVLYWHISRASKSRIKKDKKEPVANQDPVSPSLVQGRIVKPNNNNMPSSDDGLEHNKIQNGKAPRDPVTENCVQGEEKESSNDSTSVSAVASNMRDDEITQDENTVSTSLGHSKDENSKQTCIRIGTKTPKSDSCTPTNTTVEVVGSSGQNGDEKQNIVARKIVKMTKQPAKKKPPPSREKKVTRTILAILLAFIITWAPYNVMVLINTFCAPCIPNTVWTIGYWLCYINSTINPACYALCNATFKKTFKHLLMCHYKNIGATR

[3] = DRUGMATRIX: Calcium Channel Type L, Dihydropyridine radioligand binding (ligand: [3H] Nitrendipine); type: cell membranes, Rattus norvegicus, Wistar, Cerebral cortex, Membrane; settings: Not Active = under 50% inhibition at 10 µM
[4] = molecular target: T3, Receptor-type tyrosine-protein phosphatase C (Homo sapiens, UniProt P08575); design: species or system Escherichia coli;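 also: inhibition of CD45 enzyme activity measured using DiFMUP as substrate; in other assays of this panel Not Active means under 50% inhibition at 10 µM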
T3 sequence (P08575 whole entry): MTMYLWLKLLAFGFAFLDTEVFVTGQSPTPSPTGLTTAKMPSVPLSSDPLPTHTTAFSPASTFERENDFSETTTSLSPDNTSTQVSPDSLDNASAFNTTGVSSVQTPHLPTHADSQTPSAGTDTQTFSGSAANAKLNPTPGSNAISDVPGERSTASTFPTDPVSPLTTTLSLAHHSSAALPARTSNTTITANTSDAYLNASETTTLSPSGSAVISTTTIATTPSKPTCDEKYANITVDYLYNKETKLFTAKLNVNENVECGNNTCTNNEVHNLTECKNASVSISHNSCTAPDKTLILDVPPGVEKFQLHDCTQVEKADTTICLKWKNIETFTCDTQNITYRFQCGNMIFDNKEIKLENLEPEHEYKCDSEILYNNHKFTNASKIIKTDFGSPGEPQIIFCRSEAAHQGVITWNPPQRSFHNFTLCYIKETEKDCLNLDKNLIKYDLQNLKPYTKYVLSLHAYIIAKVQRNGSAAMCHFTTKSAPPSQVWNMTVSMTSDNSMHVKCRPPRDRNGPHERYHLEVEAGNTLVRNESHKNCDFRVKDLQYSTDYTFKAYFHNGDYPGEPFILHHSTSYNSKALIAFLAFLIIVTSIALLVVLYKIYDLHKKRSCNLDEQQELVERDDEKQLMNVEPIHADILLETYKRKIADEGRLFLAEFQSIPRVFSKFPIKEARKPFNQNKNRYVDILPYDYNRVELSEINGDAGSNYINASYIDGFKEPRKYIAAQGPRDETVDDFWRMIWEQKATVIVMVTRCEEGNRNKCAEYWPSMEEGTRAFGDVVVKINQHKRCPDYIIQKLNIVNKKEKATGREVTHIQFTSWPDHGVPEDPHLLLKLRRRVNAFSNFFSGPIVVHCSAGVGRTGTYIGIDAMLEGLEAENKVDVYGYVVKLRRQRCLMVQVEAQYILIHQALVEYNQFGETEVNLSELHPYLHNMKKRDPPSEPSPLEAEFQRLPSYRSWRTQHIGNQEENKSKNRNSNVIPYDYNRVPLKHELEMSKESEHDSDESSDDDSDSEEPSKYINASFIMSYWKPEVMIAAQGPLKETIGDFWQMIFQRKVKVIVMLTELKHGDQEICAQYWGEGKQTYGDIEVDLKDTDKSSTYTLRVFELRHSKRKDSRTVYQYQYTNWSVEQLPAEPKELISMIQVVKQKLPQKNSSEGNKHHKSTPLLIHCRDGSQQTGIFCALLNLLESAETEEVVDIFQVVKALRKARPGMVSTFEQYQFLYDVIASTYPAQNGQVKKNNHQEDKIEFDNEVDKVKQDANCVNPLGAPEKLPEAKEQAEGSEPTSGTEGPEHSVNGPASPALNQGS

[5] = molecular target: T4, Estrogen receptor (Homo sapiens, UniProt P03372); settings: sf9; also: in other assays of this panel Not Active means under 50% inhibition at 10 µM
T4 sequence (P03372 whole entry): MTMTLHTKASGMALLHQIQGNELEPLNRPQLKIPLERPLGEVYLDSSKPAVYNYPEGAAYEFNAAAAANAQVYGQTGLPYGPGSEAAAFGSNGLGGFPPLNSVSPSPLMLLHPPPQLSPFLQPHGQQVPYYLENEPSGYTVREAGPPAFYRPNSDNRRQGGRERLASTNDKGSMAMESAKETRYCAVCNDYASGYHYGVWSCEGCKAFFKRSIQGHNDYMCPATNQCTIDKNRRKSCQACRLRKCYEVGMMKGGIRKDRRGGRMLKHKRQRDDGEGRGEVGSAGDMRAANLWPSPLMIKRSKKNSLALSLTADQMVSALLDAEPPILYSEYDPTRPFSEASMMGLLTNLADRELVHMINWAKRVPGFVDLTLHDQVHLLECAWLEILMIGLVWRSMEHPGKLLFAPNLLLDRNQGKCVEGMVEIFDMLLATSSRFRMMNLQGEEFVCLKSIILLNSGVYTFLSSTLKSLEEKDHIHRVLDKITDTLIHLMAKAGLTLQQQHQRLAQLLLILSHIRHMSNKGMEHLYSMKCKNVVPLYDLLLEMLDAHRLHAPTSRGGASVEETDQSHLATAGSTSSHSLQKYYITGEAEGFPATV

[6] = DRUGMATRIX: ATPase, Na+/K+ enzyme inhibition (substrate: ATP); type: tissue-based, Sus scrofa, Heart; settings: Not Active = under 50% inhibition at 10 µM

Cc1cc2c(OCC(CNC(C)(C)C)OC(=O)c3ccccc3)cccc2[nH]1 (stereo not given) [BOPINDOLOL]
Not Active: IC50 [1] | IC50 ([2]; cho-k1) | IC50 [3] | Ki [3] | IC50 [4] | IC50 [5] | IC50 [6] | Ki [6]

CN/C(=N\CCSCc1nc[nH]c1C)NC#N [CIMETIDINE]
Not Active: IC50 [1] | IC50 ([2]; cho-k1) | IC50 [3] | Ki [3] | IC50 [4] | IC50 [5] | IC50 [6] | Ki [6]

COc1cc(N)c(Cl)cc1C(=O)NC1CCN(CCCOc2ccc(F)cc2)CC1OC (stereo not given) [CISAPRIDE]
Not Active: IC50 [1] | IC50 ([2]; cho-k1) | IC50 [3] | Ki [3] | IC50 [4] | IC50 [5] | IC50 [6] | Ki [6]

CCC(=O)O[C@]1(C(=O)CCl)[C@@H](C)C[C@H]2[C@@H]3CCC4=CC(=O)C=C[C@]4(C)[C@@]3(F)[C@@H](O)C[C@@]21C [CLOBETASOL PROPIONATE]
Not Active: IC50 [1] | IC50 ([2]; cho-k1) | IC50 [3] | Ki [3] | IC50 [4] | IC50 [5] | IC50 [6] | Ki [6]

O=C1CN=C(c2ccccc2Cl)c2cc([N+](=O)[O-])ccc2N1 [CLONAZEPAM]
Not Active: IC50 [1] | IC50 ([2]; cho-k1) | IC50 [3] | Ki [3] | IC50 [4] | IC50 [5] | IC50 [6] | Ki [6]

Nc1ccn([C@@H]2O[C@H](CO)[C@@H](O)[C@@H]2O)c(=O)n1 [CYTARABINE]
Not Active: IC50 [1] | IC50 ([2]; cho-k1) | IC50 [3] | Ki [3] | IC50 [4] | IC50 [5] | IC50 [6] | Ki [6]

C[C@@H]1CC[C@@]2(OC1)O[C@H]1[C@@H](O)[C@H]3[C@@H]4CC[C@H]5C[C@@H](O[C@@H]6O[C@H](CO)[C@H](O[C@@H]7O[C@H](CO)C(O)[C@H](O[C@@H]8OC[C@@H](O)[C@H](O)[C@H]8O)[C@H]7O[C@@H]7O[C@H](CO)[C@H](O)[C@H](O[C@@H]8O[C@H](CO)[C@@H](O)[C@H](O)[C@H]8O)[C@H]7O)[C@H](O)[C@H]6O)[C@H](O)C[C@]5(C)[C@H]4CC[C@]3(C)[C@H]1[C@@H]2C (stereo not given in full) [DIGITONIN]
Not Active: IC50 [1] | IC50 ([2]; cho-k1) | IC50 [3] | Ki [3] | IC50 [4] | IC50 [5] | IC50 [6] | Ki [6]

OC(CCCN1CCCCC1)(c1ccccc1)c1ccccc1 [DIPHENIDOL]
0.77 µM: IC50 ([2]; read-out: IC50)
Not Active: IC50 [1] | IC50 [3] | Ki [3] | IC50 [4] | IC50 [5] | IC50 [6] | Ki [6]
0.274 µM: Ki ([2]; read-out: Ki)

Cn1c(=O)c2c(ncn2CC(O)CO)n(C)c1=O (stereo not given) [DYPHYLLINE]
Not Active: IC50 [1] | IC50 ([2]; cho-k1) | IC50 [3] | Ki [3] | IC50 [4] | IC50 [5] | IC50 [6] | Ki [6]

CCC1(C)CC(=O)NC1=O (stereo not given) [ETHOSUXIMIDE]
Not Active: IC50 [1] | IC50 ([2]; cho-k1) | IC50 [3] | Ki [3] | IC50 [4] | IC50 [5] | IC50 [6] | Ki [6]

C#C[C@]1(OC(C)=O)CC[C@H]2[C@@H]3CCC4=C[C@@H](OC(C)=O)CC[C@@H]4[C@H]3CC[C@@]21C [ETHYNODIOL DIACETATE]
Not Active: IC50 [1] | IC50 ([2]; cho-k1) | IC50 [3] | Ki [3] | IC50 [4] | IC50 [5] | IC50 [6] | Ki [6]

C=CCc1ccc(O)c(OC)c1 [EUGENOL]
Not Active: IC50 [1] | IC50 ([2]; cho-k1) | IC50 [3] | Ki [3] | IC50 [4] | IC50 [5] | IC50 [6] | Ki [6]

CC(C)(C)NC(=O)[C@H]1CC[C@H]2[C@@H]3CC[C@H]4NC(=O)C=C[C@]4(C)[C@H]3CC[C@]12C [FINASTERIDE]
Not Active: IC50 [1] | IC50 ([2]; cho-k1) | IC50 [3] | Ki [3] | IC50 [4] | IC50 [5] | IC50 [6] | Ki [6]

COc1ccc2c3c1O[C@H]1C[C@@H](O)C=C[C@@]31CCN(C)C2 [GALANTAMINE]
Not Active: IC50 [1] | IC50 ([2]; cho-k1) | IC50 [3] | Ki [3] | IC50 [4] | IC50 [5] | IC50 [6] | Ki [6]

Nc1ccn([C@@H]2O[C@H](CO)[C@@H](O)C2(F)F)c(=O)n1 [GEMCITABINE]
Not Active: IC50 [1] | IC50 ([2]; cho-k1) | IC50 [3] | Ki [3] | IC50 [4] | IC50 [5] | IC50 [6] | Ki [6]

COC1=C(OC)C(=O)C(CCCCCCCCCCO)=C(C)C1=O [IDEBENONE]
Not Active: IC50 [1] | IC50 ([2]; cho-k1) | IC50 [3] | Ki [3] | IC50 [4] | IC50 [5] | IC50 [6] | Ki [6]

CC(C)NNC(=O)c1ccncc1 [IPRONIAZID]
Not Active: IC50 [1] | IC50 ([2]; cho-k1) | IC50 [3] | Ki [3] | IC50 [4] | IC50 [5] | IC50 [6] | Ki [6]

O=c1cc(N2CCOCC2)oc2c(-c3ccccc3)cccc12 [LY-294002]
Not Active: IC50 [1] | IC50 ([2]; cho-k1) | IC50 [3] | Ki [3] | IC50 [4] | IC50 [5] | IC50 [6] | Ki [6]
